The subject of series [1] is MV411 cells. As to the kind of experiment: AML xenograft model, combination with Ara-C. It counts as in vivo, CB17 SCID mice. As to conditions: AML mice xenograft. How it is done: CB17 SCID mice were inoculated with MV411 cells at the density of 5×10^6 suspended in PBS and matrigel (1:1). The mice were randomized based on tumor volume into 6 different groups after the tumor reached ˜200 to 500 mm^3. The mice were treated either with vehicle, NU031, NU975 alone or in combination with cytarabine (Ara-C). […] (See FIG. 17).

The target in series [2] is MYC/Max binding to DNA (Homo sapiens, UniProt P01106). The experiment in a line: Electrophoretic mobility shift assay (EMSA). On the procedure: We also tested our best hit compound Min9 (NUCC-0176234) and newly synthesized analogs for effects of these compounds on MYC/Max binding to DNA in electrophoretic mobility shift assays (EMSAs). (See FIG. 5a and FIG. 5b). We expected the active compounds to impair MYC/Max binding to DNA. Several structural analogs of Min9 were tested over multiple doses for inhibiting MYC-DNA binding and we observed a dose-dependent inhibition. (See FIG. 5c).
In general terms: In EMSA bound probe runs differently from free probe, usually more slowly.

Series [3] concerns cMYC wild-type (WT) and cMYC KO line. As to the kind of experiment: Cell viability assay, cMYC wild-type line vs cMYC KO line. It counts as cell-based. How it is done: Min9 (NUCC-0176234) was also tested in a cell viability assay against a cMYC wild-type (WT) and a cMYC KO line.
The subject of series [4] is PC12 cells. The experiment in a line: Cell viability of PC12 cells. It counts as cell-based. As to conditions: for IC50: Rattus norvegicus, PC-12, Cell viability of PC12 cells. On the procedure:
(§1) PC3 prostate cancer cell line with high Myc level and PC12 pheochromocytoma tumor cell line with non functional Max protein, which is not dependent on Myc-Max complex, were phased from ATCC. Cells were plated in 96 well plate at 1000 cells per well, and Myc inhibitor 361 at various concentrations was added to the cells next day. After 3 days of treatment, fresh medium with 361 were added again, and cell viability was measured by MTS assay at day 5 after the treatment. (See FIG. 11).

Series [5] is described as follows: In vitro metabolism in mouse S9 fraction. It counts as in vitro ADME. How it is done:
(§2) In vitro metabolism of NUCC-176242 and NUCC-176248 were tested using mouse liver microsomes and a mouse S9 fraction. (See FIG. 9).

Series [6] has as its system MycCap cells. The experiment in a line: Cell viability of MycCap cells. It counts as cell-based. The conditions noted are these: Mus musculus, Myc-CaP.
Series [7] concerns MYC WT and KO fibroblasts. The experiment in a line: Growth inhibition of wild type and MYC knockout rat fibroblasts. It counts as cell-based. The source says: We tested the top 13 active compounds in the first screen assay. […] More than half of the tested compounds show better growth inhibitory effect on MYC WT compared to MYC KO cells.
Series [8] in a line: Stability in mouse liver microsomes. It counts as in vitro ADME. The conditions noted are these: % remaining of compound after 60 min treatment with mouse liver microsomes. On the procedure: as §2
(In general: Liver microsomes are a subcellular fraction often used to study metabolism.)

The subject of series [9] is MYC transcriptional activity. As to the kind of experiment: MYC E-Box luciferase reporter assay. It counts as cell-based. The conditions noted are these: MycCap Ebox-luc, 4 hours of treatment. How it is done:
To test the compounds, we evaluated the in silico hits in a MYC E-Box luciferase reporter assay to measure the effects of these compounds (referred to as Min-1 to Min-32) on MYC transcriptional activity. […] (See FIG. 2).
MycCap cells stably expressing luciferase with CMV promoter (MycCap-luc) or c-Myc E-box-luciferase reporter (MycCap Ebox-luc) were plated at 10000 cells per well in 96 well white-wall plate. Serial dilutions of 361 were treated next day. At 4 hours of treatment, luminescence signal was determined immediately after adding 150 μg/ml of Luciferin to the well. (See FIG. 12).

The subject of series [10] is MycCap cells. As to the kind of experiment: MycCap FVB allograft model. It counts as in vivo, FVB mice. On the procedure:
FVB mice were inoculated with 1×10^6 of MycCap cells in 100 ul of matrigel subcutaneously on both flanks of the mice. When tumor size reached average size of 150 mm^3, mice were randomized based on tumor volume to 2 groups. Mice were administered with 50 mg/kg of 361 or vehicle (Veh) twice daily intra-peritoneally for two days. The treatment was suspended for 10 day, and initiated the treatment with a lower dose […] daily for another 9 days. Tumor size was measured twice a week during the experiment. (See FIG. 15).
MycCap FVB allograft model was treated with 361 (50 mg/kg) for two days, following by two days of anti-PD-1 antibody (100 ug/day), and kept this 4-day treatment cycle for 4 cycles. (See FIG. 16).

The test system of series [11] is PC3 prostate cancer cell line. The experiment in a line: Proliferation assay (MTS), PC3 cells. It counts as cell-based. The conditions noted are these: MTS at day 5. On the procedure: as §1

Experimental findings from US11142504B2, “Substituted heterocycles as c-MYC targeting agents” (Northwestern University, priority 2016, dated 2021) are described below.

A word on the IC50: it is the concentration that inhibits the measured activity by half.

Sequence of MYC/Max binding to DNA (P01106 whole entry, species assumed): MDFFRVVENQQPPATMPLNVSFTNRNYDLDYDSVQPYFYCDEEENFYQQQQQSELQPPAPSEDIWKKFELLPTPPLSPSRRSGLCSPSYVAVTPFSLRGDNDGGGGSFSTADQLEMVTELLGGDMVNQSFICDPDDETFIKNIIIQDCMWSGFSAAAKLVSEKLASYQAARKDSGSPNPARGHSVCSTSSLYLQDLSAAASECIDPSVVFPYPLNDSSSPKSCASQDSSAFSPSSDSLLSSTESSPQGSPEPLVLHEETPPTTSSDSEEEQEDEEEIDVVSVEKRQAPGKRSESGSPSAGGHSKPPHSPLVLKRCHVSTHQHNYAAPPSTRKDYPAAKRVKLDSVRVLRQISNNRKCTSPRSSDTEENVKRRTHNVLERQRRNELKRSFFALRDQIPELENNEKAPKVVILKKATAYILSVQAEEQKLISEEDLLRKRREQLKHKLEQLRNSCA

Consider `CCCCOc1ccc(-c2cc(C(F)(F)F)n[nH]2)c(O)c1-c1cc(C(F)(F)F)cc(C(F)(F)F)c1` [NU031], for which the “anti-tumor effect in combination with Ara-C” value in series [1] is “significant difference compared to control group”.
Same read-out and setting: under `Cn1nc(C(F)(F)F)cc1-c1ccc(OCc2ccc(Cl)cc2)c(-c2ccc(Cl)c(C(F)(F)F)c2)c1O` [NU975] stands “significant difference compared to control group”.
As to `CCc1ccc(Oc2c[nH]nc2-c2ccc(OCc3cnn(-c4ccccc4)c3)cc2O)cc1` [NUCC-0176234], the “inhibition of MYC/Max binding to DNA (in words)” value in series [2] is “prevent c-MYC/DNA binding”. In series [3], the “cell viability, WT line vs KO cells” value is reported as “reduces cell viability much more in the WT line than the KO cells”.
As to `CCc1ccc(Oc2c(-c3ccc(OCc4ccc(Cl)cc4)cc3O)n[nH]c2C(F)(F)F)cc1` [NUCC-0176242], the half-inhibitory concentration (IC50) is 9.8 µM in [4] and 3.1 µM in [6]. In addition, the “in vitro metabolism by mouse S9 fraction” value in series [5] is “significantly metabolism by the mouse S9 fraction”.
Consider `CCc1ccc(Oc2c(-c3ccc(OCc4ccc(Cl)cc4)cc3O)nn(C)c2C(F)(F)F)cc1` [NUCC-0176248], for which the concentration for half-maximal inhibition (IC50) in [4] was determined as 7.8 µM; in series [6], 3.4 µM. For the same molecule, the “selectivity of growth inhibition, MYC WT vs MYC KO cells” value in series [7] is “high specificity”.
In the case of `CCc1ccc(Oc2c(-c3ccc(OCc4ccncc4)cc3O)n[nH]c2C(F)(F)F)cc1` [NUCC-0176250], in [7], the “selectivity of growth inhibition, MYC WT vs MYC KO cells” value is listed as “great selectivity”.
On to `Oc1cc(OCc2ccc(Cl)cc2)ccc1-c1n[nH]c(C(F)(F)F)c1Oc1ccccc1Cl` [NUCC-0196342], for which the IC50 is 3.5 µM in series [6] and 64.4 µM in [2]. Further, in series [8], the “MLM % at 60 min” value came out at 87.4%.
With `Cn1nc(C(F)(F)F)cc1-c1ccc(OCc2ccc(Cl)cc2)c(-c2cc(C(F)(F)F)cc(C(F)(F)F)c2)c1O` [NUCC-0196361], the half-inhibitory concentration (IC50) in [4] came out at 30.7 µM; in series [6] it was 3.8 µM; in [2], 63 µM. In [8], the “MLM % at 60 min” value is 72.9%.
For `Oc1c(-c2cc(C(F)(F)F)[nH]n2)ccc(OCc2ccc(Cl)cc2)c1-c1cc(C(F)(F)F)cc(C(F)(F)F)c1` [NUCC-0196362], the half-maximal inhibitory concentration (IC50) in series [6] amounted to 4 µM; in [2], 102 µM.
Consider `Oc1c(-c2cc(C(F)(F)F)[nH]n2)ccc(OCc2ccc(Cl)cc2)c1-c1ccccc1Cl` [NUCC-0196363], for which the IC50 in series [6] was 4 µM; in [2] it was 61.8 µM. Moreover, the “MLM % at 60 min” value in series [8] came out at 88.6%.
Take `Oc1cc(OCc2ccc(Cl)cc2)ccc1-c1n[nH]c(C(F)(F)F)c1-c1ccccc1` [NUCC-0198295]: the figures for the IC50 in [6] and in series [2] were 4.6 µM and 53.3 µM, respectively.
As to `COc1cccc(-c2c(-c3ccc(OCc4ccc(Cl)cc4)cc3O)n[nH]c2C(F)(F)F)c1` [NUCC-0198309], the half-inhibitory concentration (IC50) in series [6] is 4 µM; in series [2], 61.2 µM. In [8], the “MLM % at 60 min” value amounted to 74%.
On to `Cn1nc(C(F)(F)F)cc1-c1ccc(OCc2ccc(Cl)cc2)c(-c2cccc(C#N)c2)c1O` [NUCC-0198399], for which, in [6], inhibition was half-maximal at 2.5 µM (IC50). Further, the “MLM % at 60 min” value in [8] is 80.3%.
In the case of `CCc1c(OCc2ccc(Cl)cc2)ccc(-c2cc(C(F)(F)F)n[nH]2)c1O` [NUCC-0200739], the IC50 in series [4] is 19.4 µM; in series [6], 2.2 µM. Moreover, the “MLM % at 60 min” value in [8] was 46.4%.
In the same order, the values of `CCOC(=O)c1cc(-c2ccc(OCc3ccc(Cl)cc3)c(-c3cc(C(F)(F)F)cc(C(F)(F)F)c3)c2O)n[nH]1` [NUCC-0200972] are 81 µM, 5.1 µM and 60.3%.
Consider `Cn1nc(C(F)(F)F)cc1-c1ccc(OCc2ccc(Cl)cc2)c(-c2ccc(Cl)c(C(F)(F)F)c2)c1O` [NUCC-0200975], for which the IC50 worked out at 38.4 µM in [4] and 6.1 µM in [6]. The “anti-tumor effect in combination with Ara-C” value in series [1] (listed as 975) is “significant synergic anti-tumor effect with Ara-C”.
Turning to `Cn1nc(C(F)(F)F)cc1-c1ccc(OCc2ccc(Cl)cc2)cc1C=O` [NUCC-0200976], the IC50 in series [4] was 63.3 µM; in series [6], 3.9 µM. Also, the “MLM % at 60 min” value in series [8] was determined as 21.8%.
The like results for `Oc1c(-c2cc(C(F)(F)F)n[nH]2)ccc(OCCN2CCCC2)c1-c1cc(C(F)(F)F)cc(C(F)(F)F)c1` [NUCC-0201032] were, in that order, 11 µM, 1 µM and 30.5%.
In [6], `CCCCCCOc1ccc(-c2cc(C(F)(F)F)n[nH]2)c(O)c1-c1cc(C(F)(F)F)cc(C(F)(F)F)c1` [NUCC-0201196] showed an IC50 of 4.5 µM. Also, the “MLM % at 60 min” value in [8] came out at 66.6%.
Molecule `CCCCCCOc1ccc(-c2cc(C(F)(F)F)nn2C)c(O)c1-c1cncc(C#N)c1` [NUCC-0201207] had an IC50 in series [6] of 5.7 µM. Besides, the “MLM % at 60 min” value in series [8] is recorded as 52.7%.
In the same order, the values of `CCCCOc1ccc(-c2cc(C(F)(F)F)n(C)n2)c(O)c1-c1cncc(C(F)(F)F)c1` [NUCC-0201209] are 4.4 µM and 10.3%.
On to `Oc1c(-c2cc(C(F)(F)F)[nH]n2)ccc(Oc2ccc(Cl)cc2)c1-c1cc(C(F)(F)F)cc(C(F)(F)F)c1` [NUCC-0201223], for which the IC50 in [4] was found to be 40.6 µM; in [6], 5.1 µM. Further, the “MLM % at 60 min” value in [8] was 75.8%.
As for `Cn1nc(C(F)(F)F)cc1-c1ccc(OCc2ccc(Cl)cc2)c(-c2cncc(C(F)(F)F)c2)c1O` [NUCC-0201630], the 50% inhibitory concentration (IC50) in [4] amounted to 42.3 µM; in series [6], 15.4 µM.
For `Cn1nc(-c2ccc(OCc3ccc(Cl)cc3)c(-c3cncc(C#N)c3)c2O)cc1C(F)(F)F` [NUCC-0201633], the IC50 in series [4] turned out to be 27.3 µM; in series [6], 4.6 µM.
Consider `Cn1nc(-c2ccc(OCCCNC(=O)OC(C)(C)C)c(-c3cncc(C(F)(F)F)c3)c2O)cc1C(F)(F)F` [NUCC-0201656], for which the 50% inhibitory concentration (IC50) in [4] stood at 18 µM; in series [6] it was 5.5 µM.
`Cn1nc(C(F)(F)F)cc1-c1ccc(OCc2ccc(Cl)cc2)c(-c2cc(C(F)(F)F)cc(C(F)(F)F)c2)c1O` [compound 361]: the “proliferation of Myc independent cell line PC12” value in series [4] (MTS at day 5) is listed as “not”. Besides, in series [9], the c-Myc transcription activity entry was “inhibits c-Myc transcription activity as an early event before affecting cell viability”. For the same molecule, the “tumor progression, combination with immunotherapy” value in [10] (361 50 mg/kg with anti-PD-1 antibody, 4-day cycles) is reported as “significantly blocks tumor progression”. The tumor volume entry in series [10] (mouse prostate cancer allograft, intra-peritoneally) is recorded as “reduces tumor volume”. For the same molecule, the “proliferation of Myc dependent cell line PC3” value in series [11] is recorded as “specifically inhibits proliferation”.
